{
  "source": "patent US20260116910A1",
  "about": "“POLYCYCLIC COMPOUNDS AND METHODS THEREOF” (HEPAITECH (BEIJING) BIOPHARMA TECHNOLOGY CO., LTD., priority 2021, published 2026)",
  "type_in_all_cases": "cell-based",
  "key": {"[1]": {"target": "MRGPRX4 (Homo sapiens, UniProt Q96LA9)", "sequence (Q96LA9 whole entry)": "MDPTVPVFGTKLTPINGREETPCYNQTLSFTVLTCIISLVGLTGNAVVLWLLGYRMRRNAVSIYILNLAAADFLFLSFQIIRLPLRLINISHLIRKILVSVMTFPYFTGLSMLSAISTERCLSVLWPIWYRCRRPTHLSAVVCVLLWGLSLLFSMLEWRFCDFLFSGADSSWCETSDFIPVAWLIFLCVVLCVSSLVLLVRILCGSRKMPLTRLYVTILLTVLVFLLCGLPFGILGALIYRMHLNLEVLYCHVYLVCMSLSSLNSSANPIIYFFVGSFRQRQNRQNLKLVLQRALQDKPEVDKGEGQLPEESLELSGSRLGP", "test": "MRGPRX4 activation, Fluo-8 Ca2+ FLIPR assay in HEK293T cells stably expressing MRGPRX4", "in_short": "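Cells seeded overnight to >95% confluence, loaded 40-60 min at room temperature with 2 μM Fluo-8 AM, then kept in HHBS. Baseline read 30 s, compound added, signal followed 150 s more.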"}, "[2]": {"target": "T1, human TGR5 (Homo sapiens, UniProt Q8TDU6)", "T1 sequence (Q8TDU6 1-330)": "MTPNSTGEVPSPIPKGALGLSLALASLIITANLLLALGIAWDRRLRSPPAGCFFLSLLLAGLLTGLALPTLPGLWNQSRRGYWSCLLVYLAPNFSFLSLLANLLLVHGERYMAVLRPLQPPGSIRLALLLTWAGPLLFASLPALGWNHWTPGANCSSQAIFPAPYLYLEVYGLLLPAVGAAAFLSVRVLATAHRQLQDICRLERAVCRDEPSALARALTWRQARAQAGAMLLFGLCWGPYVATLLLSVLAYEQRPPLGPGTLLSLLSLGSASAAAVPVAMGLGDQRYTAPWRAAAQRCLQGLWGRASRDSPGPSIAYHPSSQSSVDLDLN", "test": "TGR5 agonist assessment, CRE-NanoLuc reporter in HEK293T cells", "experimental": "Cells were detached by centrifuging (1000 rpm, 3 min). The pellet was re-suspended in medium, and cell density was adjusted to about 1×10^6 cells/mL. […] Cells in the microplates were cultured overnight.\nCulture medium was replaced, and compounds were added to the wells. 0.01% DMSO (v/v) served as negative control. Plates were incubated at 37° C. in 5% CO2 for 24 hr.\nIn the following day, a 10 μL aliquot of cell culture medium was removed from each well and combined with 40 μL culture medium plus […] assay buffer (containing 20 mM of the luciferase substrate coelenterazine). After 5 min incubation, luminescence was measured using an EnVision plate reader (PerkinElmer).\nIn some embodiments, gradient diluted solutions of several concentrations were used to treat cells and corresponding responses were used to fit sigmoid function and to derive EC50 in Origin."}, "[3]": {"target": "T2, human FXR (NR1H4) (Homo sapiens, UniProt Q96RI1)", "T2 sequence (Q96RI1 1-476 isoform Q96RI1-1)": "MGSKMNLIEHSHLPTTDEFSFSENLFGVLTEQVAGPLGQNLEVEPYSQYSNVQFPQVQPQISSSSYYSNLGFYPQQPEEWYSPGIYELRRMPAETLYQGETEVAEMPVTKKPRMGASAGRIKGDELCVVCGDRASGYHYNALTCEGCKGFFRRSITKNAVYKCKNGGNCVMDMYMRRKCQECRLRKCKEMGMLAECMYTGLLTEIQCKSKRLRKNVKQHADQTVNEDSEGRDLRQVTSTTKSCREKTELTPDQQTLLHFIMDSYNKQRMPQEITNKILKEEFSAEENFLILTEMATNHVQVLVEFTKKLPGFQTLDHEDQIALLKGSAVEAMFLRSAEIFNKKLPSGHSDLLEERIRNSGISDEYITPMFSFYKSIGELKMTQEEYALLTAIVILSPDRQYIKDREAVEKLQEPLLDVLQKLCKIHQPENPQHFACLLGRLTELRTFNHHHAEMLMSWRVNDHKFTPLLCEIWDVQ", "test": "Human FXR (NR1H4) agonist assessment, FXRE-NanoLuc reporter in HEK293T cells", "conditions": "FXR activation, HEK293T FXRE-NanoLuc reporter, 24 hr", "in_short": "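HEK293T cells stably expressing human FXR with an FXRE-NanoLuc reporter were treated with compounds for 24 hr at 37 °C, with 0.01% DMSO as negative control. Medium was read for luminescence after 5 min with coelenterazine. EC50 was fitted by sigmoid to concentration-response data.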"}},
  "note": "pEC50: −log10 of the molar value.",
  "data": [
    {"molecule": "CC[C@H]1[C@@H](O)[C@@H]2[C@H](CC[C@]3(C)[C@@H]([C@H](C)CCNC(=O)NS(=O)(=O)N(C)C)CC[C@@H]23)[C@@]2(C)CCCC[C@@H]12", "note": "[5-15]", "values": [
      {"measurement": "MRGPRX4 activation, Average", "setting": "[1]; E3-6-2, 1st of 6 concentration columns (head not in rows shown)", "value": 0.087},
      {"measurement": "MRGPRX4 activation, Average", "setting": "[1]; E3-6-2, 3rd of 6 concentration columns (head not in rows shown)", "value": 0.013},
      {"measurement": "MRGPRX4 activation, Average", "setting": "[1]; E3-6-2, 6th of 6 concentration columns (head not in rows shown)", "value": 0.010},
      {"measurement": "MRGPRX4 activation, Average", "setting": "[1]; E3-6-2, concentration not given", "value": 0.010},
      {"measurement": "EC50", "setting": "[1]; MRGPRX4 activation, Ca2+ fluorescence, no activation in tested range reported as III, read-out: Activity (EC50 μM)", "value": "> 100", "unit": "µM"},
      {"measurement": "pEC50", "setting": "[2]", "value": 7.89},
      {"measurement": "Efficacy (maximum measured induction of NanoLuc, normalized to CDCA set as 100%)", "setting": "[3]", "value": "C (100%<efficacy <=300%)"},
      {"measurement": "pEC50", "setting": "[3]; read-out: EC50", "value": "> 6.00"}
    ]}
  ]
}
